Experiments:
[1] = tested on: GlcCer synthase of rabbit liver microsomes; assay: GlcCer synthase of rabbit liver microsomes; assay type: biochemical
[2] = tested on: GlcCer synthase of MDCK cell homogenates; assay: Inhibition of ceramide glucosyltransferase (GlcCer synthase) of MDCK cell homogenates; assay type: biochemical, canine
Outline: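 MDCK cell sonicate (~0.2 mg protein) incubated with octanoyl sphingosine (85 μg, in dioleoylphosphatidylcholine/sulfatide liposomes) and UDP-[^3H]glucose in a thermostatted ultrasonic bath. Aromatic inhibitors were dried into the tube; aliphatic inhibitors were incorporated in the substrate liposomes.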

For `CCCCCCCCCCCCCCCC(=O)NC(CN1CCN(c2ccccc2)CC1)C(O)c1ccccc1` (mixture of isomers) [BML-112], the “inhibitory activity against GlcCer synthase of rabbit liver microsomes” value [1] was “no inhibitory activity” and the “activity against GlcCer synthase, in words” value [2] was “little or no activity”.

Source: patent US6916802B2, “Amino ceramide-like compounds and therapeutic methods of use” (Genzyme Corporation, priority 2002, dated 2005)
